Reference: ChEMBL document CHEMBL2429789, “Discovery, Design, and Optimization of Isoxazole Azepine BET Inhibitors” (ACS Med Chem Lett, 2013)
One block for each compound: values may come before it. The source made the active and inactive calls. The rule behind the calls is not given here.

Legend:
[1] = biological target: T1, Bromodomain-containing protein 4 (Homo sapiens, UniProt O60885); experiment: Inhibition of His-FLAG-tagged BRD4 binding domain1 (unknown origin) binding to H4-TetraAc-biotin peptide after 20 mins by AlphaLISA
[2] = biological target: T1, Bromodomain-containing protein 4; experiment: Inhibition of BRD4 in human Raji cells assessed as reduction of MYC expression after 4 hrs; assay type: cell-based
CYP3A4 = CYP3A4 (Homo sapiens, UniProt P08684); experiment: Inhibition of CYP3A4 (unknown origin) at 10 uM; assay type: ADME
Rattus norvegicus = experiment: […] clearance in rat at 1 mg/kg, iv; assay type: ADME, organism-based; set-up: dose 1 mg/kg, route intravenous; details: in vivo
[3] = Plasma protein binding in human; assay type: ADME, cell-free; details: read-out: PPB (converted)
[4] = AUC in rat at 5 mg/kg, po; assay type: ADME, organism-based; set-up: dose 5 mg/kg, route oral; details: plasma
[5] = Oral bioavailability in rat at 5 mg/kg; assay type: ADME, organism-based; details: in vivo
Plasma = experiment: Stability of the compound in rat plasma; assay type: ADME, cell-free
[6] = Intrinsic clearance in human liver microsomes; assay type: ADME, Microsome; details: read-out: CLH
[7] = Half life in rat at 1 mg/kg, iv; assay type: ADME, organism-based; set-up: dose 1 mg/kg, route intravenous; details: in vivo
[8] = Intrinsic clearance in rat liver microsomes; assay type: ADME, Microsome; details: read-out: CLH
[9] = Volume of distribution at steady state in rat at 1 mg/kg, iv; assay type: ADME, organism-based; set-up: dose 1 mg/kg, route intravenous; details: in vivo, read-out: Vdss
Mus musculus [10] = experiment: Inhibition in MYC expression in tumor of NOD/SCID Harlan mouse xenografted with human Raji cells at 100 mg/kg, po after 4 hrs; assay type: functional
[11] = Intrinsic clearance in dog liver microsomes; assay type: ADME, Canis lupus familiaris, Microsome; details: read-out: CLH
[12] = Plasma protein binding in mouse; assay type: ADME, cell-free; details: read-out: PPB (converted)
[13] = Intrinsic clearance in mouse liver microsomes; assay type: ADME, Microsome; details: read-out: CLH
[14] = Half life in dog at 1 mg/kg, iv; assay type: ADME, organism-based, Canis lupus familiaris; set-up: dose 1 mg/kg, route intravenous; details: in vivo
[15] = Volume of distribution at steady state in dog at 1 mg/kg, iv; assay type: ADME, organism-based, Canis lupus familiaris; set-up: dose 1 mg/kg, route intravenous; details: in vivo, read-out: Vdss
Mus musculus [16] = experiment: Inhibition of MYC expression in tumor of NOD/SCID Harlan mouse xenografted with human Raji cells at 100 mg/kg, po after 8 hrs relative to control; assay type: functional, organism-based; set-up: dose 100 mg/kg
Mus musculus [17] = experiment: Inhibition in MYC expression in tumor of NOD/SCID Harlan mouse xenografted with human Raji cells at 100 mg/kg, po; assay type: functional, organism-based; set-up: dose 100 mg/kg
[18] = Drug uptake in tumor of NOD/SCID Harlan mouse xenografted with human Raji cells at 100 mg/kg, po; assay type: ADME, organism-based, Neoplasm; set-up: dose 100 mg/kg, route oral; details: in vivo, read-out: Drug uptake
Canis familiaris = experiment: Intrinsic clearance in dog at 1 mg/kg, iv; assay type: ADME, organism-based, Canis lupus familiaris; set-up: dose 1 mg/kg, route intravenous; details: in vivo
[19] = Plasma protein binding in rat; assay type: ADME, cell-free; details: read-out: PPB (converted)
Mus musculus [20] = experiment: Inhibition in MYC expression in tumor of po dosed NOD/SCID Harlan mouse xenografted with human Raji cells; assay type: functional, organism-based
[21] = AUC in mouse at 5 mg/kg, po; assay type: ADME, organism-based; set-up: dose 5 mg/kg, route oral; details: plasma
Mus musculus [22] = experiment: Inhibition of MYC expression in tumor of NOD/SCID Harlan mouse xenografted with human Raji cells at 100 mg/kg, po up to 8 hrs; assay type: functional, organism-based; set-up: dose 100 mg/kg

Chain of CYP3A4 (P08684 whole entry): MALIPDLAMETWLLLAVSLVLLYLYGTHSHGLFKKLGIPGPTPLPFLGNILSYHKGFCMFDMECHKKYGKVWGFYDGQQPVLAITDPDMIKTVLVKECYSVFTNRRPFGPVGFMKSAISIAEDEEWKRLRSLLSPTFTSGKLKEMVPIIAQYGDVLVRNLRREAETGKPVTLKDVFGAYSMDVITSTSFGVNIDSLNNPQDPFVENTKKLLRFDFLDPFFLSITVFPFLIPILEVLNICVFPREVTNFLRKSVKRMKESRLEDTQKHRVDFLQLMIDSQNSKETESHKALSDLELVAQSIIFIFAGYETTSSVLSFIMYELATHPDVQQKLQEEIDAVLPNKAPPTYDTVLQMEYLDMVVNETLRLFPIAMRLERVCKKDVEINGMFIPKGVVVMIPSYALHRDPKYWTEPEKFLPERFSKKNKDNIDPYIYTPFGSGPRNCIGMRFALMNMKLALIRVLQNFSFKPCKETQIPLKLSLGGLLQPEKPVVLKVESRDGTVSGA

Structure (SMILES): Cc1noc2c1-c1sc(C)c(C)c1C(c1ccc(C#N)cc1)=N[C@H]2[C@@H](C)C(N)=O
IC50 [1]: 250 nM
IC50 [2]: 710 nM

Structure (SMILES): COC(=O)NC[C@@H]1N=C(c2ccc(Cl)cc2)c2c(sc(C)c2C)-c2c(C)noc21
IC50 [1]: 86 nM
IC50 [2]: 1900 nM

Structure (SMILES): CC(=O)NC[C@@H]1N=C(c2ccc(Cl)cc2)c2c(sc(C)c2C)-c2c(C)noc21
IC50 [1]: 190 nM
IC50 [2]: 2200 nM

Structure (SMILES): Cc1noc2c1-c1sc(C)c(C)c1C(c1ccc(Cl)cc1)=N[C@H]2Cc1nccs1
IC50 [1]: 190 nM
IC50 [2]: 2100 nM

Structure (SMILES): Cc1noc2c1-c1sc(C)c(C)c1C(c1ccc(Cl)cc1)=N[C@H]2Cc1ncc[nH]1
IC50 [1]: 200 nM
IC50 [2]: 3600 nM

Structure (SMILES): Cc1noc(N)c1-c1ccccc1
IC50 [1]: 33000 nM

Structure (SMILES): CCNC(=O)C[C@@H]1N=C(c2ccc(Cl)cc2)c2c(sc(C)c2C)-c2c(C)noc21
IC50 [1]: 36 nM
IC50 [2]: 320 nM

Structure (SMILES): Cc1noc2c1-c1sc(C)c(C)c1C(c1ccc(Cl)cc1)=N[C@H]2CC(=O)OC(C)(C)C
IC50 [1]: 290 nM
IC50 [2]: 2100 nM

Structure (SMILES): Cc1noc2c1-c1sc(C)c(C)c1C(C1CCOCC1)=N[C@H]2CC(N)=O
IC50 [1]: 6200 nM

Structure (SMILES): Cc1noc2c1-c1sc(C)c(C)c1C(N1CCOCC1)=N[C@H]2CC(N)=O
IC50 [1]: 1100 nM

Continued, in another order:

inhibition at 10 µM (CYP3A4): 0%
CL (Rattus norvegicus): 72.5 mL/min/kg
fraction unbound [3]: 0.041
AUC [4]: 504 ng·h/mL
bioavailability [5]: 44%
Stability (Plasma): Unstable
IC50 [1]: 33 nM
microsomal CLint [6]: 4.6 µL/min/mg
half-life [7]: 0.393 h
IC50 [2]: 91 nM
microsomal CLint [8]: 8.9 µL/min/mg
Vd [9]: 2.22 L/kg
Structure (SMILES): Cc1noc2c1-c1sc(C)c(C)c1C(c1ccc(C#N)cc1)=N[C@H]2CC(N)=O

inhibition at 10 µM (CYP3A4): 1%
fraction unbound [3]: 0.018
Stability (Plasma): Unstable
IC50 [1]: 29 nM
microsomal CLint [6]: 2.4 µL/min/mg
IC50 [2]: 180 nM
microsomal CLint [8]: 160 µL/min/mg
Structure (SMILES): Cc1noc2c1-c1sc(C)c(C)c1C(c1ccccc1)=N[C@H]2CC(N)=O

IC50 [1]: 300 nM
IC50 [2]: 1500 nM
Structure (SMILES): CCCC1=N[C@@H](CC(N)=O)c2onc(C)c2-c2sc(C)c(C)c21

IC50 [1]: 5700 nM
Structure (SMILES): Cc1noc2c1-c1sc(C)c(C)c1C(Cc1ccccc1)=N[C@H]2CC(N)=O

IC50 [1]: 74 nM
IC50 [2]: 470 nM
Structure (SMILES): Cc1noc2c1-c1sc(C)c(C)c1C(c1cccc(Cl)c1)=N[C@H]2CC(N)=O

IC50 [1]: 2100 nM
Structure (SMILES): CCNC(=O)C[C@H]1N=C(c2ccc(Cl)cc2)c2c(sc(C)c2C)-c2c(C)noc21

inhibition at 10 µM (CYP3A4): 20%
fraction unbound [3]: 0.006
Stability (Plasma): Unstable
IC50 [1]: 73 nM
microsomal CLint [6]: 5.4 µL/min/mg
IC50 [2]: 380 nM
microsomal CLint [8]: 18 µL/min/mg
Structure (SMILES): Cc1noc2c1-c1sc(C)c(C)c1C(c1ccc(N)nc1)=N[C@H]2CC(N)=O

IC50 [1]: 2500 nM
Structure (SMILES): Cc1noc2c1-c1sc(C)c(C)c1C(c1cncnc1)=N[C@H]2CC(N)=O

IC50 [1]: 42 nM
IC50 [2]: 160 nM
Structure (SMILES): Cc1cc(Cl)ccc1C1=N[C@@H](CC(N)=O)c2onc(C)c2-c2sc(C)c(C)c21

inhibition at 10 µM (CYP3A4): 20%
CL (Rattus norvegicus): 46.2 mL/min/kg
fraction unbound [3]: 0.006
AUC [4]: 605 ng·h/mL
bioavailability [5]: 31%
IC50 [1]: 26 nM
microsomal CLint [11]: 11 µL/min/mg
fraction unbound [12]: 0.019
microsomal CLint [13]: 140 µL/min/mg
half-life [14]: 3 h
Vd [15]: 1.27 L/kg
concentration [18]: 5 µM
microsomal CLint [6]: 5.5 µL/min/mg
CL (Canis familiaris): 5.33 mL/min/kg
fraction unbound [19]: 0.008
half-life [7]: 1.39 h
IC50 [2]: 140 nM
microsomal CLint [8]: 27 µL/min/mg
AUC [21]: 723 ng·h/mL
Vd [9]: 2.45 L/kg
Structure (SMILES): Cc1noc2c1-c1sc(C)c(C)c1C(c1ccc(Cl)cc1)=N[C@H]2CC(N)=O
inhibition in vivo at 100 mg/kg (Mus musculus [10]): 75%
inhibition (Mus musculus [16]): inactive
inhibition (Mus musculus [17]): Active
inhibition (Mus musculus [20]): Dose-dependent effect
inhibition (Mus musculus [22]): Active

IC50 [1]: 72 nM
IC50 [2]: 240 nM
Structure (SMILES): Cc1noc2c1-c1sc(C)c(C)c1C(c1ccc(Cl)cn1)=N[C@H]2CC(N)=O

IC50 [1]: 250 nM
IC50 [2]: 1900 nM
Structure (SMILES): Cc1noc2c1-c1sc(C)c(C)c1C(c1ccccc1Cl)=N[C@H]2CC(N)=O
